Assay results from PubChem BioAssay AID1963439 (Molecular Pharmacology Branch, DTP, NCI, 2024).

Tested on: NCI-H196 complex spheroids with HUVEC/MSC, growth % T/C
Test: Anticancer human tumor NCI-H196 cell line growth inhibition [Asc];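 note: spheroids exposed to compound for 7 days before measurement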;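 for viability, T/C: 100% = DMSO vehicle control wells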
Details: for IC50: curve of first compound; for viability, T/C: stronger effect = lower value
How it was run: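 Spheroid model: tumor line + HUVEC + hMSC. Single agents and combinations; top conc. at/near clinical Cmax (10 microM if undetermined), half-log dilutions. DMSO stocks at 800-fold test concentration.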

[1] = second compound 0.1 µM, first compound 0.00316 µM
[2] = second compound 0.1 µM, first compound 0.01 µM
[3] = second compound 0.1 µM, first compound 0.0316 µM
[4] = second compound 0.1 µM, first compound 0.1 µM
[5] = second compound 0.316 µM, first compound 0.00316 µM
[6] = second compound 0.316 µM, first compound 0.01 µM
[7] = second compound 0.316 µM, first compound 0.0316 µM
[8] = second compound 0.316 µM, first compound 0.1 µM
[9] = second compound 1 µM, first compound 0.00316 µM
[10] = second compound 1 µM, first compound 0.01 µM
[11] = second compound 1 µM, first compound 0.0316 µM
[12] = second compound 1 µM, first compound 0.1 µM
[13] = second compound 3.16 µM, first compound 0.00316 µM
[14] = second compound 3.16 µM, first compound 0.01 µM
[15] = second compound 3.16 µM, first compound 0.0316 µM
[16] = second compound 3.16 µM, first compound 0.1 µM
[17] = second compound 10 µM, first compound 0.00316 µM
[18] = second compound 10 µM, first compound 0.01 µM
[19] = second compound 10 µM, first compound 0.0316 µM
[20] = second compound 10 µM, first compound 0.1 µM

In the case of COc1c(OCCCN2CCOCC2)ccc2c3n(c(=NC(=O)c4cnc(N)nc4)nc12)CCN3 + Cc1c(S(C)(=O)=O)c(-c2cc(F)cc(N3CCN(c4ccc(NS(=O)(=O)c5ccc(NC(CCN6CCC(C(=O)OCCCP(=O)(O)O)CC6)CSc6ccccc6)c(S(=O)(=O)C(F)(F)F)c5)cc4)CC3)c2)c(-c2ccc(Cl)cc2)n1C(C)C, the IC50 (second compound 0.1 µM) is reported as > 1000 nM, the IC50 (second compound 0.316 µM) is reported as > 1000 nM and the IC50 (second compound 1 µM) is reported as 286 nM. It also gave an IC50 (second compound 3.16 µM) of 225 nM, an IC50 (second compound 10 µM) of 132 nM and a viability, T/C [1] of 96.6%. For the same molecule, the viability, T/C [2] was 88.3%, the viability, T/C [3] was 76.4% and the viability, T/C [4] was 77.5%. The viability, T/C (second compound 0.1 µM, first compound 0.316 µM) was 59.7%, the viability, T/C (second compound 0.1 µM, first compound 1 µM) was 50.8% and the viability, T/C [5] was 90.6%. The viability, T/C [6] was 86.8%, the viability, T/C [7] was 82.3% and the viability, T/C [8] was 62.7%. For the same molecule, the viability, T/C (second compound 0.316 µM, first compound 0.316 µM) was 57.9%, the viability, T/C (second compound 0.316 µM, first compound 1 µM) was 50.7% and the viability, T/C [9] was 88.8%. It also gave a viability, T/C [10] of 86.5%, a viability, T/C [11] of 74.6% and a viability, T/C [12] of 60.5%. For the same molecule, the viability, T/C (second compound 1 µM, first compound 0.316 µM) was 49.3%, the viability, T/C (second compound 1 µM, first compound 1 µM) was 43.9% and the viability, T/C [13] was 80%. It also gave a viability, T/C [14] of 88.7%, a viability, T/C [15] of 72.3% and a viability, T/C [16] of 62.8%. It also gave a viability, T/C (second compound 3.16 µM, first compound 0.316 µM) of 44.8%, a viability, T/C (second compound 3.16 µM, first compound 1 µM) of 37.4% and a viability, T/C [17] of 74.2%. It also gave a viability, T/C [18] of 80.1%, a viability, T/C [19] of 65.7% and a viability, T/C [20] of 52.6%. It also gave a viability, T/C (second compound 10 µM, first compound 0.316 µM) of 41.5% and a viability, T/C (second compound 10 µM, first compound 1 µM) of 32.3%.

NC(=O)C(=Cn1cnc(-c2cc(C(F)(F)F)cc(C(F)(F)F)c2)n1)c1cncnc1 + Cc1c(S(C)(=O)=O)c(-c2cc(F)cc(N3CCN(c4ccc(NS(=O)(=O)c5ccc(NC(CCN6CCC(C(=O)OCCCP(=O)(O)O)CC6)CSc6ccccc6)c(S(=O)(=O)C(F)(F)F)c5)cc4)CC3)c2)c(-c2ccc(Cl)cc2)n1C(C)C gave an IC50 (second compound 0.1 µM) of 19.3 nM, an IC50 (second compound 0.316 µM) of 23.3 nM and an IC50 (second compound 1 µM) of 21.3 nM. It also gave an IC50 (second compound 3.16 µM) of 19.8 nM, an IC50 (second compound 10 µM) of 14.7 nM and a viability, T/C (second compound 0.1 µM, first compound 0.000949 µM) of 101%. It also gave a viability, T/C (second compound 0.1 µM, first compound 0.003 µM) of 89.2%, a viability, T/C (second compound 0.1 µM, first compound 0.00949 µM) of 72.1% and a viability, T/C (second compound 0.1 µM, first compound 0.03 µM) of 38.7%. It also gave a viability, T/C (second compound 0.1 µM, first compound 0.0949 µM) of 4.69%, a viability, T/C (second compound 0.1 µM, first compound 0.3 µM) of 1.47% and a viability, T/C (second compound 0.316 µM, first compound 0.000949 µM) of 95.5%. For the same molecule, the viability, T/C (second compound 0.316 µM, first compound 0.003 µM) was 89%, the viability, T/C (second compound 0.316 µM, first compound 0.00949 µM) was 78.9% and the viability, T/C (second compound 0.316 µM, first compound 0.03 µM) was 43.4%. The viability, T/C (second compound 0.316 µM, first compound 0.0949 µM) was 3.08%, the viability, T/C (second compound 0.316 µM, first compound 0.3 µM) was 1.16% and the viability, T/C (second compound 1 µM, first compound 0.000949 µM) was 91.2%. The viability, T/C (second compound 1 µM, first compound 0.003 µM) was 83.5%, the viability, T/C (second compound 1 µM, first compound 0.00949 µM) was 72.3% and the viability, T/C (second compound 1 µM, first compound 0.03 µM) was 42.8%. The viability, T/C (second compound 1 µM, first compound 0.0949 µM) was 2.35%, the viability, T/C (second compound 1 µM, first compound 0.3 µM) was 1.29% and the viability, T/C (second compound 3.16 µM, first compound 0.000949 µM) was 78%. The viability, T/C (second compound 3.16 µM, first compound 0.003 µM) was 78.5%, the viability, T/C (second compound 3.16 µM, first compound 0.00949 µM) was 64.1% and the viability, T/C (second compound 3.16 µM, first compound 0.03 µM) was 42.5%. For the same molecule, the viability, T/C (second compound 3.16 µM, first compound 0.0949 µM) was 2.09%, the viability, T/C (second compound 3.16 µM, first compound 0.3 µM) was 1.75% and the viability, T/C (second compound 10 µM, first compound 0.000949 µM) was 76.4%. It also gave a viability, T/C (second compound 10 µM, first compound 0.003 µM) of 74.3%, a viability, T/C (second compound 10 µM, first compound 0.00949 µM) of 59.6% and a viability, T/C (second compound 10 µM, first compound 0.03 µM) of 33.5%. For the same molecule, the viability, T/C (second compound 10 µM, first compound 0.0949 µM) was 2.89% and the viability, T/C (second compound 10 µM, first compound 0.3 µM) was 1.28%.

With NC1CCC(NC2CC2c2ccccc2)CC1 (stereo not given) + Cc1c(S(C)(=O)=O)c(-c2cc(F)cc(N3CCN(c4ccc(NS(=O)(=O)c5ccc(NC(CCN6CCC(C(=O)OCCCP(=O)(O)O)CC6)CSc6ccccc6)c(S(=O)(=O)C(F)(F)F)c5)cc4)CC3)c2)c(-c2ccc(Cl)cc2)n1C(C)C the IC50 (second compound 0.1 µM) was > 100 nM, the IC50 (second compound 0.316 µM) was > 100 nM and the IC50 (second compound 1 µM) was > 100 nM. The IC50 (second compound 3.16 µM) was > 100 nM, the IC50 (second compound 10 µM) was > 100 nM and the viability, T/C (second compound 0.1 µM, first compound 0.000316 µM) was 91.7%. The viability, T/C (second compound 0.1 µM, first compound 0.001 µM) was 100%, the viability, T/C [1] was 84.5% and the viability, T/C [2] was 93.7%. For the same molecule, the viability, T/C [3] was 93.1%, the viability, T/C [4] was 85.7% and the viability, T/C (second compound 0.316 µM, first compound 0.000316 µM) was 91.8%. It also gave a viability, T/C (second compound 0.316 µM, first compound 0.001 µM) of 88.7%, a viability, T/C [5] of 97% and a viability, T/C [6] of 96.7%. It also gave a viability, T/C [7] of 97.5%, a viability, T/C [8] of 91.6% and a viability, T/C (second compound 1 µM, first compound 0.000316 µM) of 89.1%. The viability, T/C (second compound 1 µM, first compound 0.001 µM) was 88.7%, the viability, T/C [9] was 89.8% and the viability, T/C [10] was 85.1%. For the same molecule, the viability, T/C [11] was 87.5%, the viability, T/C [12] was 80% and the viability, T/C (second compound 3.16 µM, first compound 0.000316 µM) was 79.4%. The viability, T/C (second compound 3.16 µM, first compound 0.001 µM) was 86.6%, the viability, T/C [13] was 79.2% and the viability, T/C [14] was 75.9%. The viability, T/C [15] was 78%, the viability, T/C [16] was 76% and the viability, T/C (second compound 10 µM, first compound 0.000316 µM) was 69.7%. It also gave a viability, T/C (second compound 10 µM, first compound 0.001 µM) of 73.5%, a viability, T/C [17] of 69.3% and a viability, T/C [18] of 74%. For the same molecule, the viability, T/C [19] was 76.6% and the viability, T/C [20] was 71.1%.
